Each compound was assayed against T1, full-length NS3/NS4A-2 (HCV NS3 protease) (Hepatitis C virus genotype 1a, UniProt P27958) (assay: NS3-NS4 protease assay / NS3 inhibition assay (RETS1 substrate, fluorescence kinetic read)). Details: Table 22; read-out: NS3-NS4 IC50.
T1 construct: Recombinant E. coli or Baculovirus full-length NS3 was diluted to 3.33 μM with assay buffer; made in house; host or cells: E. coli or baculovirus (BV) expression system
Assay type: biochemical
Experimental: NS3 complex formation with NS4A-2.
Recombinant E. coli or Baculovirus full-length NS3 was diluted to 3.33 μM with assay buffer and transferred material to an eppendorf tube and place in water bath in 4° C. refrigerator. The appropriate amount of NS4A-2 to 8.3 mM in assay buffer was added to equal the volume of NS3 in step 2.1.1 (conversion factor—3.8 mg/272 μL assay buffer). The material was transferred to an eppendorf tube and place in water bath in 4° C. refrigerator.
After equilibration to 4° C., equal volumes of NS3 and NS4A-2 solutions were combined in an eppendorf tube, mix gently with a manual pipettor, and incubate mixture for 15 minutes in the 4° C. water bath. Final concentrations in the mixture are 1.67 μM NS3, 4.15 mM NS4A-2 (2485-fold molar excess NS4A-2).
After 15 minutes at 4° C., the NS3/NS4A-2 eppendorf tube was removed and place it in a room temperature water bath for 10 minutes. NS3/NS4A-2 was alliquoted at appropriate volumes and store at −80° C. (E. coli NS3 run at 2 nM in assay, aliquot at 25 μL. BV NS3 run at 3 nM in assay, aliquot at 30 μL).
Sample compounds were dissolved to 10 mM in DMSO then diluted to 2.5 mM (1:4) in DMSO. Typically, compounds were added to an assay plate at 2.5 mM concentration, yielding upon dilution a starting concentration of 50 microM in the assay inhibition curve. Compounds were serial diluted in assay buffer to provide test solutions at lower concentrations.
The E. coli. NS3/NS4A-2 was diluted to 4 nM NS3 (1:417.5 of 1.67 μM stock−18 μL 1.67 μM stock+7497 μL assay buffer). The BV NS3/NS4A-2 was diluted to 6 nM NS3 (1:278.3 of 1.67 μM stock−24 μL 1.67 μM stock+6655 μL assay buffer). Using the manual multichannel pipettor, careful not to introduce bubbles into the plate, add 50 μL assay buffer to wells A01-H01 of a black Costar 96-well polypropylene storage plate.
Using the manual multichannel pipettor, careful not to introduce bubbles into the plate, add 50 μL of diluted NS3/NS4A-2 from step 2.2.6 to wells A02-H12 of plate in step 2.2.7. Using the manual multichannel pipettor, careful not to introduce bubbles into the plate, transfer 25 μL of the wells in drug dilution plate in step 2.2.5 to corresponding wells in assay plate in step 2.2.8. Change tips on multichannel pipettor for each row of compounds transferred. Using the manual multichannel pipettor, careful not to introduce bubbles into the plate, mix the wells from the assay plate in step 2.2.9 by aspirating and dispensing 35 μL of the 75 μL in each well five times. Change tips on multichannel pipettor for each row of wells mixed. Cover plate with a polystyrene plate lid and pre-incubate the plate from step 2.2.10 containing NS3 protease and sample compounds 10 minutes at room temperature. While plate from step 2.2.11 is pre-incubating, dilute RETS1 substrate in a 15 mL polypropylene centrifuge tube. Dilute RETS1 substrate to 8 μM (1:80.75 of 646 μM stock−65 μL 646 μM stock+5184 μL assay buffer).
After the plate in step is done pre-incubating, and using the manual multichannel, add 25 μL of substrate to all wells on the plate. Quickly mix the plate as in step 2.2.10, mixing 65 μL of the 100 μL in the wells.
Read the plate in kinetic mode on the Molecular Devices SpectraMax Gemini XS plate reader. Reader settings: Read time: 30 minutes, Interval: 36 seconds, Reads: 51, Excitation λ: 335 nm, Emission λ: 495 nm, cutoff: 475 nm, Automix: off, Calibrate: once, PMT: high, Reads/well: 6, Vmax pts: 21 or 28/51 depending on length of linearity of reaction
IC50 s are determined using a four parameter curve fit equation, and converted to Ki's using the following Km's: • Full-length E. coli NS3—2.03 μM • Full-length BV NS3—1.74 μM where Ki=IC50/(1+[S]/Km)) • Quantitation by ELISA of the selectable marker protein, Neomycin phosphotransferase II (NPTII) in the HCV Sub-Genomic Replicon, GS4.3

T1 sequence (P27958 1027-1657): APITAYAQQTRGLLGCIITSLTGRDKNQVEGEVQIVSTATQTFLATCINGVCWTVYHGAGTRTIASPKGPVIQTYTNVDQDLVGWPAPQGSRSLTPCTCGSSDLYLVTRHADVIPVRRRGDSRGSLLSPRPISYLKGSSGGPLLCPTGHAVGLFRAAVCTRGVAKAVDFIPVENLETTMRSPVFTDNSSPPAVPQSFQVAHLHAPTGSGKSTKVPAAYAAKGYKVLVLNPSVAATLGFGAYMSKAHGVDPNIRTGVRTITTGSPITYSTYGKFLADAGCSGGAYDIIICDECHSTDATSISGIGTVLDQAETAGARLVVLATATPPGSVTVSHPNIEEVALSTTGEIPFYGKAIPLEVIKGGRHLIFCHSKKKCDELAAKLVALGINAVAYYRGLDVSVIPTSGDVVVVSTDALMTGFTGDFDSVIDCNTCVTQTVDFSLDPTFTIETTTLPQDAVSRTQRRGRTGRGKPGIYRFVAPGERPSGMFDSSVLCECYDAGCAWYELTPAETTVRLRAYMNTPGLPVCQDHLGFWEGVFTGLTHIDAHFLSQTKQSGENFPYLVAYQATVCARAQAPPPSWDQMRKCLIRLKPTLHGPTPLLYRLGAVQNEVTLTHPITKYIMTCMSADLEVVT

`Cc1ccc(NC(=O)[C@@]23C[C@H]2/C=C\CCCCC[C@H](NC(=O)OC(C)(C)C)C(=O)N2CCC[C@H]2C(=O)N3)cc1` [Compound 2316] and `CC(C)(C)OC(=O)N[C@H]1CCCCC/C=C\[C@@H]2C[C@@]2(C(=O)NCCc2ccccc2)NC(=O)[C@@H]2CCCN2C1=O` [Compound 2320] cannot be ordered by IC50: under 1 µM for the first, under 0.1 µM for the second.

Same assay, conditions: recombinant E. coli or Baculovirus full-length NS3 with NS4A-2; read-out: NS3-NS4 IC50

Compared with `COC(=O)c1csc(S(=O)(=O)NC(=O)[C@@]23C[C@H]2/C=C\CCCCC[C@H](NC(=O)OC(C)(C)C)C(=O)N2CCC[C@H]2C(=O)N3)c1OC` [Compound 310], `CC(C)(C)OC(=O)N[C@H]1CCCCC/C=C\[C@@H]2C[C@@]2(C(=O)NS(=O)(=O)c2cccs2)NC(=O)[C@@H]2CCCN2C1=O` [Compound 2136] is lower in IC50: over 10 µM for the first, under 10 µM for the second.

Going from `CC(C)(C)OC(=O)N[C@H]1CCCCC/C=C\[C@@H]2C[C@@]2(C(=O)NS(=O)(=O)NCCc2ccc(Cl)cc2)NC(=O)[C@@H]2CCCN2C1=O` [Compound 403] to `COc1ccc(CCNS(=O)(=O)NC(=O)[C@@]23C[C@H]2/C=C\CCCCC[C@H](NC(=O)OC(C)(C)C)C(=O)N2CCC[C@H]2C(=O)N3)cc1` [Compound 413], the IC50 rises from under 10 µM to over 10 µM. The first is the more potent here.

`CC(C)(C)OC(=O)N[C@H]1CCCCC/C=C\[C@@H]2C[C@@]2(C(=O)NS(=O)(=O)Nc2cccnc2)NC(=O)[C@@H]2CCCN2C1=O` [Compound 406] and `CC(C)(C)OC(=O)N[C@H]1CCCCC/C=C\[C@@H]2C[C@@]2(C(=O)NS(=O)(=O)Nc2ccncc2)NC(=O)[C@@H]2CCCN2C1=O` [Compound 407] cannot be ordered by IC50: over 10 µM for the first, over 10 µM for the second.

`CC(C)(C)OC(=O)N[C@H]1CCCCC/C=C\[C@@H]2C[C@@]2(C(=O)NS(=O)(=O)NC2CCCCC2)NC(=O)[C@@H]2CCCN2C1=O` [Compound 2205] and `CC(C)(C)OC(=O)N[C@H]1CCCCC/C=C\[C@@H]2C[C@@]2(C(=O)NS(=O)(=O)NC2CC2)NC(=O)[C@@H]2CCCN2C1=O` [Compound 2201] cannot be ordered by IC50: under 1 µM for the first, under 1 µM for the second.

`Cc1ccc([S@+]([O-])NC(=O)[C@@]23C[C@H]2/C=C\CCCCC[C@H](NC(=O)OC(C)(C)C)C(=O)N2CCC[C@H]2C(=O)N3)cc1` [Compound 2402] and `CC(C)(C)OC(=O)N[C@H]1CCCCC/C=C\[C@@H]2C[C@@]2(C(=O)NS(=O)(=O)c2cccc(Cl)c2)NC(=O)[C@@H]2CCCN2C1=O` [Compound 2110] cannot be ordered by IC50: under 0.1 µM for the first, under 10 µM for the second.

`CC1CCCN1S(=O)(=O)NC(=O)[C@@]12C[C@H]1/C=C\CCCCC[C@H](NC(=O)OC(C)(C)C)C(=O)N1CCC[C@H]1C(=O)N2` (some centres unmarked) [Compound 2250] and `COC[C@H]1CCCN1S(=O)(=O)NC(=O)[C@@]12C[C@H]1/C=C\CCCCC[C@H](NC(=O)OC(C)(C)C)C(=O)N1CCC[C@H]1C(=O)N2` [Compound 2251] cannot be ordered by IC50: under 10 µM for the first, under 0.1 µM for the second.

`C=CCNS(=O)(=O)NC(=O)[C@@]12C[C@H]1/C=C\CCCCC[C@H](NC(=O)OC(C)(C)C)C(=O)N1CCC[C@H]1C(=O)N2` [Compound 2238] and `CNS(=O)(=O)NC(=O)[C@@]12C[C@H]1/C=C\CCCCC[C@H](NC(=O)OC(C)(C)C)C(=O)N1CCC[C@H]1C(=O)N2` [Compound 2213] cannot be ordered by IC50: under 1 µM for the first, under 10 µM for the second.

`CC(C)(C)OC(=O)N[C@H]1CCCCC/C=C\[C@@H]2C[C@@]2(C(=O)NS(=O)(=O)Cc2ccccc2Cl)NC(=O)[C@@H]2CCCN2C1=O` [Compound 2117] and `CC(C)(C)OC(=O)N[C@H]1CCCCC/C=C\[C@@H]2C[C@@]2(C(=O)NS(=O)(=O)N2Cc3ccccc3C2)NC(=O)[C@@H]2CCCN2C1=O` [Compound 409] cannot be ordered by IC50: under 1 µM for the first, under 10 µM for the second.

`CCOc1ccc2sc(S(=O)(=O)NC(=O)[C@@]34C[C@H]3/C=C\CCCCC[C@H](NC(=O)OC(C)(C)C)C(=O)N3CCC[C@H]3C(=O)N4)nc2c1` [Compound 306] and `Cc1noc(C)c1S(=O)(=O)NC(=O)[C@@]12C[C@H]1/C=C\CCCCC[C@H](NC(=O)OC(C)(C)C)C(=O)N1CCC[C@H]1C(=O)N2` [Compound 308] cannot be ordered by IC50: over 10 µM for the first, over 10 µM for the second.

`CC(C)(C)OC(=O)N[C@H]1CCCCC/C=C\[C@@H]2C[C@@]2(C(=O)NS(=O)(=O)N2CCOCC2)NC(=O)[C@@H]2CCCN2C1=O` [Compound 2204] and `CC(C)(C)OC(=O)N[C@H]1CCCCC/C=C\[C@@H]2C[C@@]2(C(=O)NS(=O)(=O)C2CCCC2)NC(=O)[C@@H]2CCCN2C1=O` [Compound 2120] cannot be ordered by IC50: under 1 µM for the first, under 1 µM for the second.

First: CC(C)(C)OC(=O)N[C@H]1CCCCCCC[C@@H]2C[C@@]2(C(=O)O)NC(=O)C2Cc3ccccc3CN2C1=O (stereo partly drawn) [Compound 2011, (1aR,9S,19aR)-9-(tert-butoxycarbonyl)-10,18-dioxo-1a,2,3,4,5,6,7,8,9,10,12,17,17a,18,19,19a-hexadecahydro-1H-2,5-diaza-bicyclo[13.1.0]hexadec-1(15)-eno[5,4-b]isoquinoline-19a-carboxylic acid]
Second: CC(C)(C)OC(=O)N[C@H]1CCCCC/C=C\[C@@H]2C[C@@]2(C(=O)NS(=O)(=O)NCCc2ccccc2)NC(=O)[C@@H]2CCCN2C1=O [Compound 2228]
The IC50 of the first is higher: over 10 µM for the first, under 10 µM for the second.

`O=C(N[C@H]1CCCCC/C=C\[C@@H]2C[C@@]2(C(=O)NS(=O)(=O)C2CC2)NC(=O)[C@@H]2CCCN2C1=O)OC1CCCC1` [Compound 312] and `CC(=O)N[C@H]1CCCCC/C=C\[C@@H]2C[C@@]2(C(=O)NS(=O)(=O)C2CC2)NC(=O)[C@@H]2CCCN2C1=O` [Compound 316] cannot be ordered by IC50: under 1 µM for the first, under 10 µM for the second.

`CC(C)(C)OC(=O)N[C@H]1CCCCC/C=C\[C@@H]2C[C@@]2(C(=O)NS(=O)(=O)Nc2ccc(C#N)cc2)NC(=O)[C@@H]2CCCN2C1=O` [Compound 2241] and `CCCC1(S(=O)(=O)NC(=O)[C@@]23C[C@H]2/C=C\CCCCC[C@H](NC(=O)OC(C)(C)C)C(=O)N2CCC[C@H]2C(=O)N3)CC1` [Compound 304] cannot be ordered by IC50: under 1 µM for the first, under 10 µM for the second.

`CC(C)(C)OC(=O)N[C@H]1CCN(S(=O)(=O)c2ccccc2[N+](=O)[O-])CC/C=C\[C@@H]2C[C@@]2(C(=O)NS(=O)(=O)C2CC2)NC(=O)[C@@H]2C[C@@H](OC(=O)N3Cc4cccc(F)c4C3)CN2C1=O` [Compound 1030, (2R,6S,13aS,14aR,16aS,Z)-6-(tert-butoxycarbonylamino)-14a-(cyclopropylsulfonylcarbamoyl)-9-(2-nitrophenylsulfonyl)-5,16-dioxo-1,2,3,5,6,7,8,9,10,11,13a,14,14a,15,16,16a-hexadecahydrocyclopropa(n)pyrrolo[2,1-c][1,4,9]triazacyclopentadecine-2-yl 4-fluoroisoindoline-2-carboxylate] and `CS(=O)(=O)NC(=O)[C@@]12C[C@H]1/C=C\CCCCC[C@H](NC(=O)OC1CCCC1)C(=O)N1Cc3ccc(Oc4cccc(Cl)c4)cc3CC1C(=O)N2` (stereo partly drawn) [Compound 2003, Cyclopentyl (1aS,9S,19aR,Z)-15-(3-chlorophenoxy)-19a-(methylsulfonylcarbamoyl)-10,18-dioxo-1a,4,5,6,7,8,9,10,12,17,17a,18,19,19a-tetradecahydro-1H-11,14-diaza-bicyclo[13.1.0]hexadeca-1(15), 2-dieno[11,12-b]isoquinolin-9-ylcarbamate] cannot be ordered by IC50: under 0.1 µM for the first, under 10 µM for the second.

`CC(C)(C)OC(=O)N[C@H]1CCCCC/C=C\[C@@H]2C[C@@]2(C(=O)NS(=O)(=O)c2c(Cl)cc(Cl)cc2Cl)NC(=O)[C@@H]2CCCN2C1=O` [Compound 2115] and `CCOC(=O)[C@@]12C[C@H]1/C=C\CCCCC[C@H](NC(=O)OC1CCCC1)C(=O)N1C[C@H](OC(=O)N3Cc4ccc(OCCN5CCOCC5)cc4C3)C[C@H]1C(=O)N2` [Compound 129] cannot be ordered by IC50: under 0.1 µM for the first, under 10 µM for the second.
